What was measured:
Format in all cases: cell-based, human
HeLa cells [1] = assay: Cell morphology by light microscopy, HeLa; conditions: 10 and 25 μM, 72 h
Protocol: (§1) The evaluation of changes in cell morphology has been performed after incubation with compounds 24 and 31 for 72 h using light microscopy.
(§2) The HeLa, MCF-7, and HCT-116 cells were seeded on 24-well plates (5 × 10^4/per well) in 1 mL of medium for 24 h. After that time, cells were treated with 24 and 31 for next 72 h. Cells were treated with 10 µM, 25 µM of 24, or 25 µM of 31. As a control, non-treated cells were used. Morphology of cells was observed after 72 h using light microscope Olympus IX83.

HeLa cells [2] = assay: Phosphatidylserine translocation (Annexin V-FITC/PI), HeLa; conditions: 72 h
Text: One of the early indicators of apoptosis is the exposure of phosphatidylserine residues on the cell’s surface. Annexin V has a high affinity to phosphatidylserine and, as a conjugate to fluorescein isothiocyante (FITC), is widely used for detection of early apoptotic cells using flow cytometry. Detection of late-apoptotic or necrotic cells is achieved by using propidium iodide (PI) stain. Based on the obtained fluorescence, four subpopulations were found: PI-low/FITC-low (live cells), PI-high/FITC-low (necrotic cells), PI-low/FITC-high (early apoptotic cells), and PI-high/FITC-high (late apoptotic cells).
Analysis was performed using FITC-conjugated annexin-V (Annexin V-FITC Apoptosis Kit I, BD Biosciences, San Jose, CA, USA) according to the manufacturer’s instructions (BD Biosciences) as described previously. HeLa, MCF-7, and HCT-116, after seeding to 24-well plates (5 × 10^4/per well) and 24 h incubation, were treated for 72 h with 24 or 31 (10/25 µM or 25 µM concentration respectively). Following treatment, cells were washed in PBS, centrifuged, and then resuspended in a binding buffer. Afterward, the cells were incubated for 15 min at 37 °C with FITC-conjugated annexin-V and propidium iodide. The samples were then analyzed using a LSR II flow cytometer (BD Biosciences) using 530 ± 25 nm (Annexin V-FITC) and 575 ± 26 nm (PI).
The subpopulations were identified according to their fluorescence: PI-low/FITC-low (live cells), PI-high/FITC-low (necrotic cells), PI-low/FITC-high (early apoptotic cells), and PI-high/FITC-high (late apoptotic cells).

MCF-7 cells = assay: Cell morphology by light microscopy, MCF-7; conditions: MCF-7, 10 and 25 μM, 72 h
Protocol: as §1, §2

MCF-7 (breast cancer) = assay: MTT cell viability assay, MCF-7
Text: The cytotoxic activity of the compounds 8–33 has been evaluated in MTT assays against three human cancer cell lines MCF-7 (breast cancer), HeLa (cervical cancer), and HCT-116 (colon cancer) and it was expressed as IC50 values in μM (Table 1).
(§3) All chemicals, if not stated otherwise, were obtained from Sigma-Aldrich (St. Louis, MO, USA). The MCF-7 cell line was purchased from Cell Lines Services (Eppelheim, Germany), the HeLa and HCT-116 cell lines were obtained from the Department of Microbiology, Tumor and Cell Biology, Karolinska Institute (Stockholm, Sweden). Cells were cultured in Dulbecco’s modified Eagle’s medium (DMEM) supplemented with 10% fetal bovine serum, 2 mM glutamine, 100 units/mL penicillin, and 100 μg/mL streptomycin. Cultures were maintained in a humidified atmosphere with 5% CO2 at 37 °C in an incubator (HeraCell, Heraeus, Langenselbold, Germany).
(§4) Cell viability was determined using the MTT (3-(4,5-dimethylthiazol-2-yl)-2,5-diphenyl-tetrazoliumbromide) assay. Stock solutions of the studied compounds were prepared in 100% DMSO. […] Cells were seeded in 96-well plates at a density of 5 × 10^3 cells/well and treated for 72 h with the examined compounds in the concentration range 1–100 μM (1, 10, 25, 50, and 100 μM). Following treatment, MTT (0.5 mg/mL) was added to the medium and cells were further incubated for 2 h at 37 °C. Cells were lysed with DMSO and the absorbance of the formazan solution was measured at 550 nm with a plate reader (1420 multilabel counter, Victor, Jügesheim, Germany). […] The experiment was performed in triplicate. Values are expressed as the mean ± SD of at least three independent experiments.

HeLa cells [3] = assay: Cell cycle distribution by flow cytometry, HeLa; conditions: 72 h; for cells in sub-G1 phase: control 5.08%
Protocol: (§5) The cell cycle distribution was measured by flow cytometry analysis after incubation of MCF-7, HeLa, and HCT-116 with compounds 24 and 31 for 72 h.

HCT-116 cells [4] = assay: Mitochondrial membrane potential (JC-1, flow cytometry), HCT-116; conditions: HCT-116, 72 h, 24 at 10 or 25 μM, 31 at 25 μM
Text: A decrease in mitochondrial potential is one of the earliest hallmarks of apoptosis. A common method for indication of cells with high and low Δψm is flow cytometry combined with specific fluorescent probes, such as JC-1 (5,5′,6,6′-tetrachloro-1,1′,3,3′-tetraethylbenzimidazolylcarbocyanine iodide). JC-1 accumulates in mitochondria and forms complexes (J aggregates) with red fluorescence in healthy cells with a normal ΔΨm, whereas in apoptotic cells with a low ΔΨm exists as a monomer with green fluorescence.
Analyzed cells were seeded into wells of a 24-well plate at a density of 5 × 10^4 cells in 1000 µL, incubated overnight, and then the medium was exchanged for dilutions of reagents 24 and 31. Before the end of 72 h of incubation, MitoProbe JC-1 (25 µM) was added into each plate well. Carbonyl cyanide m-chlorophenylhydrazone CCCP (200 nM) as the mitochondrial oxidative phosphorylation uncoupler was added into the positive control 15 min before JC-1 was added. After 30 min of JC-1 staining, cells were washed with PBS and then trypsinized (Corning® 25-053CI). Cells suspended in PBS were analyzed by flow cytometry at λ excitation (ex) = 488 nm and λ emission (em) = 525/570 nm (LSR II BD Biosciences, San Jose, CA, USA).

HCT-116 cells [5] = assay: Cell cycle distribution by flow cytometry, HCT-116; conditions: for cells in sub-G1 phase: 72 h, control 1.15%
Protocol: as §5

HCT-116 (colon cancer) = assay: MTT cell viability assay, HCT-116
Protocol: as §3, §4

- IC50 (MCF-7 (breast cancer); Homo sapiens, MCF7, MTT, 72 h): 12 ± 0.6 µM
- IC50 (HCT-116 (colon cancer); Homo sapiens, HCT-116, MTT, 72 h): 9 ± 0.5 µM
SMILES: Cc1cc(S(=O)(=O)NC(N)=NN=C(C=Cc2ccccc2O)c2ccccc2)c(SCc2ccccc2Cl)cc1Cl [Compound 24, 3-{4-chloro-2-[(2-chlorophenyl)methylthio]-5-methylbenzenesulfonyl}-2-[3-(2-hydroxyphenyl)-1-phenylprop-2-enylideneamino]guanidine]
- changes in cell morphology (HeLa cells [1]): apoptotic-like changes, such as shrinkage of the cells or detachment from the surface
- level of late apoptotic cells (Annexin V-FITC/PI) (HeLa cells [2]; 25 μM): significantly increased level of late apoptotic cells
- population of apoptotic cells (Annexin V-FITC/PI) (HeLa cells [2]; 24 at 10 or 25 μM, 31 at 25 μM): increased population of apoptotic cells
- changes in cell morphology (MCF-7 cells): apoptotic-like changes, such as shrinkage of the cells or detachment from the surface
- Selectivity Index MCF-7/HaCaT (MCF-7 (breast cancer); MCF-7 versus HaCaT, from IC50 values): 2.7
- cells in sub-G1 phase (HeLa cells [3]; 10 μM): 7.45%
- cells in sub-G1 phase (HeLa cells [3]; 25 μM): 18.07%
- effect on cell cycle distribution (HeLa cells [3]; 24 at 10 and 25 μM, 31 at 25 μM): significant increase in the cell distribution in the sub-G1 phase
- change of mitochondrial membrane potential (ΔΨm) (HCT-116 cells [4]): remarkable decrease in ΔΨm
- cells in sub-G1 phase (HCT-116 cells [5]; HCT-116, 10 μM): 49.69%
- cells in sub-G1 phase (HCT-116 cells [5]; HCT-116, 25 μM): 65.31%
- effect on cell cycle distribution (HCT-116 cells [5]; HCT-116, 72 h, 24 at 10 and 25 μM, 31 at 25 μM): significant increase in the cell distribution in the sub-G1 phase
- Selectivity Index HCT-116/HaCaT (HCT-116 (colon cancer); HCT-116 versus HaCaT, from IC50 values): 3.7

Source: PMC10002375, “Synthesis of 3-(2-Alkylthio-4-chloro-5-methylbenzenesulfonyl)-2-(1-phenyl-3-arylprop-2-enylideneamino)guanidine Derivatives with Pro-Apoptotic Activity against Cancer Cells” (International Journal of Molecular Sciences, 2023)
